One data set in a line: clinical. The settings on record: both, human, in vivo. As for the experimental part: Adult patients having a clinical diagnosis of VAP, with a Gram-positive or Gram-negative organism in a tracheal aspirate sample were expected to be on mechanical ventilation for ≧3 days.
Each adult patient received 3 escalating doses of a mixture of 50 mg/mL amikacin and 20 mg/mL fosfomycin, with doses separated by 24±2 hours (Table 1).
All treatments were administered with a single patient, multi-treatment nebulizer (Investigational eFlow® Inline Nebulizer System; PARI Pharma GMBH, Starnberg, Germany), positioned in the inspiratory tubing between the ventilator and the patient. The nebulizer remained inline until all treatments were delivered.
A placebo: 0.9% normal saline, having a volume matched to the antibiotic dosing schedule was delivered via the PARI Investigational eFlow® Inline Nebulizer System in mechanically ventilated patients.
The eFlow® Inline Nebulizer System was positioned in the inspiratory tubing between the Puritan Bennett 840 Ventilator and the patient. Once in place, the nebulizer remained inline until all study-drug doses were delivered. Humidification continued during the nebulization of the formulation and the delivery of the entire dose.
Patients are male or female between 18 years and 80 years of age with clinical diagnosis of VAP or VAT, a Gram-positive or Gram-negative bacteria on Gram stain of the tracheal aspirate and were expected to be on mechanical ventilation for at least three days.

The nature of data set [1]: Aerosol particle size distribution (MMAD) in dog study. Format: physicochemical. The settings on record: analytical methods, eFlow Inline Nebulizer aerosol.
In data set [2] the test system is Pseudomonas aeruginosa. Nature of the data set: MIC by CLSI agar dilution, amikacin-resistant P. aeruginosa strains (SENTRY). Format: cell-based. The settings on record: 21 P. aeruginosa isolates. The text has this:
(§1) Sixty-two amikacin-resistant strains were selected from a worldwide antimicrobial surveillance collection (SENTRY), which contains 35,000 organisms from six continents (56/62 organisms collected in 2011).
Background: Agar dilution tests growth on a series of plates holding different concentrations.

Another data set deals with Acinetobacter baumannii. Nature of the data set: MIC by CLSI agar dilution, amikacin-resistant A. baumannii strains (SENTRY). Format: cell-based. The following applies: for MIC50: 21 A. baumannii isolates.
Source text: as §1

Data set [3] concerns Pseudomonas aeruginosa. The settings on record: 1477 Pseudomonas aeruginosa isolates, Zhanel et al.; cited from earlier work.
Data set [4] has as its system Stenotrophomonas maltophilia. The settings on record: Zhanel et al.; cited from earlier work.
Data set [5] is described as follows: in vivo. The following applies: dog; for Cmax: both, beagle. The procedure: A GLP (Good Laboratory Practice) study was performed using 24 beagle dogs allocated to four dose groups (three males and three females per group) and exposed to aerosol generated with the PARI Investigational eFlow® Inline Nebulizer System using a closed-faced mask fitted with a mouth tube. The aerosols contained either control (water for injection) in Group 1 or a combined formulation containing 50 mg/mL amikacin and 20 mg/mL fosfomycin pH adjusted with HCl for Groups 2 to 4. Aerosol concentrations were determined on Days 1 and 7. The treatment period was for seven days with termination of the dogs on Day 8.
Toxicokinetic parameters were estimated using WinNonlin pharmacokinetic software version 5.2.1 (Pharsight Corp.). A non-compartmental approach consistent with the extravascular route of administration was used for parameter estimation. All parameters were generated from individual amikacin and fosfomycin concentrations in plasma from Days 1 and 7.

In a further data set the test system is Klebsiella pneumoniae. Nature of the data set: MIC by CLSI agar dilution, amikacin-resistant K. pneumoniae strains (SENTRY). Format: cell-based. The settings on record: 20 K. pneumoniae isolates.
Source text: as §1

Data set [6] deals with 62 Gram-negative, amikacin-resistant pathogens. Nature of the data set: MIC by CLSI agar dilution, all 62 amikacin-resistant isolates. Format: cell-based. The following applies: for MIC50: All 62 isolates.
Source text: as §1

A short description of data set [7]: in vivo. On the set-up: species or system beagle dogs. The settings on record: both sexes, beagle, dog, delivered as combination antibiotic aerosol, 7-day treatment. As for the experimental part: Aerosol concentrations were determined on Days 1 and 7.
For data set [8] the following is noted: inhaled; cited from earlier work.
Data set [9] deals with methicillin-resistant Staphylococcus aureus (MRSA). The settings on record: 148 MRSA isolates, data from the 1980s; cited from earlier work.
Data set [10] in a line: pH and osmolality of amikacin starting material and solution. The following applies: starting material. Format: physicochemical. From the text: Amikacin Base, EP is compendial (Ph Eur) and is manufactured by ACS Dobfar S.p.a under DMF 13762. The API is manufactured in Bergamo, Italy. Fosfomycin Disodium is compendial (Ph Eur) and is manufactured by Ercros, S.A. under DMF 14341. The API is manufactured in Madrid, Spain. Rather than commercial amikacin sulfate, the amikacin base is the starting material. Amikacin base has a pH of approximately 11, and large amounts of HCl are required to neutralize the pH. In the two-part formulation (used to combine with equal volumes of 40 mg/mL fosfomycin to generate the final formulation of 50 mg/mL amikacin, 20 mg/mL fosfomycin), the amikacin 100 mg/mL solution has a final pH of 7.5-7.6 and has an osmolality of approximately 533 mOsmol/kg, of which only approximately 170 mOsmol/kg is due to the amikacin, the balance is from the chloride anion. This concentration of chloride anion provides the permeant anion that will prevent cough.
In contrast, the starting pH of amikacin sulfate is 3.5-5.5 and little or no HCl is needed to neutralize the pH of the solution. Note that in the Neiderman paper (supra) amikacin sulfate was delivered as an aerosol to patients with VAP, and bronchospasm was reported in some patients. […] As described above, a final formulation has an amikacin concentration of 50 mg/ml and chloride anion concentration of approximately 265 meq/liter. […]

The conditions of data set [11]: of water; cited from earlier work.
[12] abbreviates: read-out: Median (MIC50) Amikacin MIC.
[13] abbreviates: read-out: Median (MIC50) Fosfomycin MIC.

SMILES strings stand for the structures. ≈ marks a conversion by molar mass, not a printed value. Where a name gives a salt, the structure may show the parent alone. Read-outs that look alike come from different tables or passages of the source.

Usually MIC50 stands for the lowest concentration that inhibits either 50% of growth or 50% of the strains tested, depending on the study. Usually MIC stands for the least concentration at which growth counts as inhibited. Read a low MIC as greater potency. For orientation: Cmax means the peak of the concentration-time curve. In general, NOAEL refers to the highest tested level that showed no adverse finding. By solubility is commonly meant the dissolved amount per volume that the medium holds.

Compound `NCC[C@H](O)C(=O)N[C@@H]1C[C@H](N)[C@@H](O[C@H]2O[C@H](CN)[C@@H](O)[C@H](O)[C@H]2O)[C@H](O)[C@H]1O[C@H]1O[C@H](CO)[C@@H](O)[C@H](N)[C@H]1O` [Amikacin, amikacin] returned a Kp in “clinical” above 2000. Also, the “Mean amikacin Cmax in tracheal aspirate, fold higher than MIC 90 for P. aeruginosa” value in “clinical” is reported as at least 406 fold. In the data set “clinical”, the “amikacin Cmax in tracheal aspirate, fold higher than MIC90 of P. aeruginosa” value is at least 89 fold. The “particle size distribution (MMAD)” value in data set [1] came out at 2.80 μm. Further, the MIC50 with Pseudomonas aeruginosa [2] (setting [12]) came out at 128 µg/mL (≈ 219 µM); in the data set with Acinetobacter baumannii (setting [12]), 8 µg/mL (≈ 13.7 µM); with Klebsiella pneumoniae (setting [12]) it was 256 µg/mL (≈ 437 µM); in data set [6] (setting [12]), 128 µg/mL (≈ 219 µM). The compound also returned an MIC in the data set on Acinetobacter baumannii (5 A. baumannii isolates with high amikacin resistance) above 1020 µg/mL. For the same compound, the “MIC 90” value in the data set with Pseudomonas aeruginosa [3] is 32 µg/mL (≈ 54.6 µM); in data set [4] it was above 64 µg/mL. The Cmax in the data set “in vivo [5]” lay in the range of 13200 to 39300 ng/mL. Further, the “accumulation following repeat dosing” value in the data set “in vivo [5]” is recorded as “no clear indication of accumulation”. Besides, the “amikacin concentration required to inhibit all 62 isolates” value in [6] (FIG. 4) was above 1024 µg/mL. Moreover, the no observed adverse effect level (NOAEL) at 7 days in the data set “in vivo [7]” was 117 mg/kg/day.

Regarding `NC[C@H]1O[C@H](O[C@H]2[C@H](O)[C@@H](O[C@H]3O[C@H](CO)[C@@H](O)[C@H](N)[C@H]3O)[C@H](N)C[C@@H]2N)[C@H](N)C[C@@H]1O` [tobramycin], in data set [8], the airway half-life entry is recorded as “about 2 hours”.

`C[C@@H]1O[C@@H]1P(=O)(O)O` [Fosfomycin, fosfomycin]: in the data set “clinical”, the Kp is above 2000; the “Mean fosfomycin Cmax in tracheal aspirate, fold higher than MIC 90 for MRSA” value is reported as 281 fold; the “fosfomycin Cmax in tracheal aspirate, fold higher than MIC 90 of MRSA” value is given as at least 54 fold. Further, in “clinical” (6 h), the “fosfomycin tracheal aspirate concentrations, fold above the MIC 90 for MRSA” value is given as at least 2.2 fold. In addition, the “particle size distribution (MMAD)” value in [1] was determined as 2.75 μm. Also, the MIC50 with Pseudomonas aeruginosa [2] (setting [13]) worked out at 51.2 µg/mL (≈ 371 µM). In addition, in the data set on Acinetobacter baumannii (setting [13]), the MIC50 worked out at 205 µg/mL (≈ 1480 µM). Also, in the data set “in vivo [5]”, the Cmax fell in the range of 8700 to 28700 ng/mL and the “accumulation following repeat dosing” value is given as “no clear indication of accumulation”. In addition, the MIC50 in the data set with Klebsiella pneumoniae (setting [13]) was 25.6 µg/mL (≈ 185 µM). For the same compound, the “MIC 90” value in data set [9] is 32 µg/mL (≈ 232 µM). Moreover, in data set [6] (setting [13]), the MIC50 stood at 51.2 µg/mL (≈ 371 µM). The NOAEL at 7 days in the data set “in vivo [7]” came to 47.5 mg/kg/day.

On to `NCC[C@H](O)C(=O)N[C@@H]1C[C@H](N)[C@@H](O[C@H]2O[C@H](CN)[C@@H](O)[C@H](O)[C@H]2O)[C@H](O)[C@H]1O[C@H]1O[C@H](CO)[C@@H](O)[C@H](N)[C@H]1O` [Amikacin base], for which, in [10], the pH entry is listed as “approximately 11”.

Turning to `C[C@@H]1O[C@@H]1P(=O)(O)O` [disodium salt of fosfomycin, Fosfomycin disodium], in data set [11], the solubility was 50 mg/mL.

The record behind these values is US8636983B2, “Aminoglycoside and fosfomycin combination for treatment of ventilator associated pneumonia (VAP) and ventilator associated tracheal (VAT) bronchitis” (priority 2011, dated 2014).
